Results taken from publication PMC11510591, “In Vitro Evaluation of Pharmacokinetic Properties of Selected Dual COX-2 and 5-LOX Inhibitors” (Pharmaceuticals, 2024).
Like-named read-outs stand apart in the source and are kept apart here.

Key:
[1] = target: T1, human serum albumin (HSA) (Homo sapiens, UniProt P02768); format: binding; details: CHIRALPAK HSA column, ammonium acetate buffer pH 7.0/acetonitrile 85:15, 25 °C
T1 construct: purchased Sigma-Aldrich
Experimental: Recently, interactions of many newly synthesized structurally diverse compounds with HSA were successfully studied using this technique. The degree of binding of the tested compounds to HSA was evaluated based on their retention behavior on the stationary phase modified with HSA. The logarithmic values of retention factors (logk) were used to evaluate indirectly and compare the drug–HSA interaction.
HPAC analysis was performed on an Agilent 1200 Series chromatograph (Agilent Technologies, Santa Clara, CA, USA). […] The mobile phase consisted of ammonium acetate buffer (pH 7.0; 0.01 M) and acetonitrile (85:15, v/v). The flow rate was 0.6 mL/min, the temperature was set to 25 °C, and the detection of tested compounds was carried out at 283 nm. Tested compounds were dissolved in DMSO (at a concentration of 1 mg/mL), further diluted with the mobile phase to a final concentration of 0.05 mg/mL, and analyzed in triplicate. The HPAC conditions were selected not only with the aim of achieving satisfactory retention characteristics of all synthesized compounds but also taking into account recommendations of a column manufacturer. Retention factors were calculated using Equation (1), where t0 (column dead time) was the retention time of DMSO at 220 nm.

[2] = PAMPA test (hexadecane membrane), passive gastrointestinal absorption; format: in vitro ADME; details: donor pH 5.5, acceptor pH 7.4, 5 h, room temperature; for Papp at 5 h, 0.05 mM: PAMPA, read-out: Pe (effective passive permeability coefficient)
Experimental: The PAMPA test uses a 96-well plate coated with an impregnated filter material, forming an artificial membrane that separates donor and acceptor compartments. Egg lecithin in dodecane is commonly used to simulate membrane lipids, while hexadecane is effective for mimicking gastrointestinal membranes. […] Therefore, hexadecane dissolved in hexane was chosen in this study.
The phosphate buffer solution was prepared by dissolving 0.5292 g of NaH2PO4 × H2O and 0.0234 g of Na2HPO4 in purified water (200 mL). The phosphate buffer was divided into two portions, and the pH was adjusted to pH 5.5 and pH 7.4 using o-phosphoric acid. The donor solutions were prepared by diluting the stock solutions (5 mM DMSO solutions) with the buffer pH 5.5 to obtain the final concentration of 0.05 mM (the DMSO concentration in the donor solutions was 1%), while the acceptor solution was prepared as a 1% DMSO solution in the buffer pH 7.4. The use of DMSO as a cosolvent in PAMPA is necessary in cases of low-soluble compounds. It is usually used in concentrations up to 5% [25, 55, 56, 57].
The PAMPA test was performed according to the literature procedure using a 96-well microtiter polycarbonate filter plate (Merck Millipore, Carrigtwohill, Ireland) that was impregnated with 15 µL of a hexadecane/hexane (5:95, v/v) solution [52]. Donor solutions (300 µL per well) were transferred into each well of the donor plate. Acceptor solution was transferred into each well (300 µL per well) of the acceptor plate (MSSACCEPTOR, Millipore, Burlington, MA, USA) and covered by the donor plate to create a PAMPA sandwich. The system was incubated at room temperature for 5 h at a vibratory mixer. After incubation, the PAMPA sandwich was dissociated, and concentrations of all tested compounds in each well, as well as in the starting solutions, were determined using the HPLC method (Section 3.3.1).
The concentrations of tested compounds in the starting solutions, as well as in the donor and acceptor sections after incubation, were determined by the HPLC method on the Dionex Ultimate 3000 (Thermo Fisher Scientific, Waltham, MA, USA) equipped with a quaternary pump, autosampler, and DAD detector using a ZORBAX Eclipse XDB-C18 4.6 × 150 mm, 5 µm column (Agilent Technologies, Santa Clara, CA, USA).
R represents the retention, which is defined as the fraction of the tested compound retained in the PAMPA membrane (filters and plate materials), CD(t) is the concentration of a tested compound in a donor compartment after incubation time t, CA(t) is the concentration of a tested compound in an acceptor compartment after incubation time t, while CD(0) represents the concentration of a tested compound in a donor compartment at the beginning of the incubation (starting solution).

[3] = BMC, Brij 35 mobile phase pH 5.5, 36.5 °C, C18 column
Experimental: BMC was performed using polyoxyethylene lauryl ether (Brij 35) as the most frequently used surfactant in this method. All other parameters (pH, temperature, and salinity) were set to achieve physiological conditions. The retention of compounds is mostly influenced by their lipophilicity and their interactions with both the modified stationary phase and the micelles in the mobile phase. Therefore, the elution behavior is determined by the combined effects of micelles, the stationary phase, and water. An important factor for this method is finding the optimal balance between organic solvent and aqueous phase.
BMC was performed on an Agilent 1200 Series (Agilent Technologies, Santa Clara, CA, USA) supplied with a binary pump, manual injector (20 µL), and DAD detector (190–950 nm) using a C18 column (ZORBAX Extend-C18 Analytical 4.6 × 150 mm; 5 µm, Agilent Technologies, Santa Clara, CA, USA). Mobile phase was a combination of aqueous phase (40 mmol/L solution of Brij 35 in 7 mmol/L Na2HPO4) and acetonitrile (70:30, v/v), and the mobile phase pH was adjusted to 5.5 using o-phosphoric acid. […] Retention factors (k) were calculated according to Equation (1). Column dead time (t0) was the retention time of DMSO at 220 nm, while tR was the retention time of a tested compound. k = (tR − t0)/t0(1)

[4] = target: T1, human serum albumin (HSA); experiment: Differential pulse voltammetry (DPV), interaction with HSA; format: binding; details: compound 0.05 mmol/L, PBS pH 7.4, HSA 0.05–10 μmol/L
Experimental: The electrochemical oxidation of the tested compounds at a concentration of 0.05 mmol/L in PBS buffer pH 7.4 was investigated by differential pulse voltammetry (DPV). […] For all tested compounds, a preliminary study of the interaction with HSA was performed at a concentration of 0.05 mmol/L and different HSA concentrations (0.05–10 μmol/L) using DPV. […] It has been reported that the shift in the potential of an electroactive ligand is a suitable criterion to determine the mode of the macromolecule–ligand interaction. In this context, a positive shift in potential is an indication of hydrophobic interaction of investigated compounds with HSA [34]. The decrease in peak current could be due to the formation of a non-electroactive supramolecular compound by the drug–protein interaction, which reduces the concentration of free drug.
The voltammetric measurements were carried out with the µAutolab analyzer (EcoChemie, Utrecht, The Netherlands). A three-electrode system with a GCE working electrode, an Ag/AgCl reference electrode, and a Pt-auxiliary electrode was used. Before each experiment, the GCE was manually polished with an aqueous slurry of Al2O3 powder (particle size of 0.05 μm) on a smooth polishing pad, sonicated in deionized water, and then treated in absolute ethanol. Phosphate buffer saline (PBS) pH 7.4 was used as the supporting electrolyte. The experiments were carried out with deaerated PBS buffer. A stock solution of HSA in PBS at a concentration of 0.1 mmol/L was used. […] The interaction between tested compounds and HSA was examined in PBS solution, using solutions of tested compounds in a concentration of 0.05 mmol/L and HSA solution with a concentration in the range of 0.05–10 μmol/L.
The percentage of free compound (Equation (4)) was calculated from the ratio of the current intensity (IINT) for a given compound concentration (0.05 mmol/L) in the presence of albumin to the signal obtained at the same compound concentration only in the presence of the supporting electrolyte (PBS buffer) (IC).

[5] = tested on: CD-1 mouse liver microsomes; details: pH 7.4; for Peak Area, t0: 0 min; for Peak Area, t: 30 min
Experimental: Microsomal stability (and thus susceptibility to metabolism) was tested using microsomes derived from CD-1 mouse liver. According to the applied protocol, both phases of metabolism were activated by the addition of cofactors NADPH and UDP-GlcUA. […] Stock solutions of all tested compounds (5 mM DMSO solutions) were diluted with 0.1 M potassium phosphate buffer pH 7.4 to obtain 0.1 mM solutions, which were further incubated according to the protocol. In order to activate both the 1st and 2nd phases of metabolism, NADPH and UDP-GlcUA were used as cofactors. Tested compounds were incubated at 37 °C for 30 min, and the incubation was quenched immediately after the addition of cofactors (t0) and after the defined incubation time (t) by mixing 100 µL of corresponding incubation mixtures with 200 µL of cold acetonitrile. All compounds were tested in duplicates, and their concentrations were determined using the HPLC-MS/MS method (Section 3.7.1).
The HPLC-MS/MS analysis was performed on the UHPLC chromatograph ACELLA (Thermo Fisher Scientific Inc., Madison, WI, USA), coupled to a triple quadrupole mass spectrometer TSQ Quantum Access MAX (Thermo Fisher Scientific Inc., Madison, WI, USA) with a heated electrospray ionization (HESI) interface. The column used was Zorbax Extend C18 (150 mm × 4.6 mm, 5 µm; Agilent Technologies), which was thermostated at 25 °C. The mobile phase consisted of acetonitrile and 0.1% formic acid (60:40, v/v), with a flow rate of 500 µL/min. The injection volume was 10 µL.

T1 sequence (P02768 25-609): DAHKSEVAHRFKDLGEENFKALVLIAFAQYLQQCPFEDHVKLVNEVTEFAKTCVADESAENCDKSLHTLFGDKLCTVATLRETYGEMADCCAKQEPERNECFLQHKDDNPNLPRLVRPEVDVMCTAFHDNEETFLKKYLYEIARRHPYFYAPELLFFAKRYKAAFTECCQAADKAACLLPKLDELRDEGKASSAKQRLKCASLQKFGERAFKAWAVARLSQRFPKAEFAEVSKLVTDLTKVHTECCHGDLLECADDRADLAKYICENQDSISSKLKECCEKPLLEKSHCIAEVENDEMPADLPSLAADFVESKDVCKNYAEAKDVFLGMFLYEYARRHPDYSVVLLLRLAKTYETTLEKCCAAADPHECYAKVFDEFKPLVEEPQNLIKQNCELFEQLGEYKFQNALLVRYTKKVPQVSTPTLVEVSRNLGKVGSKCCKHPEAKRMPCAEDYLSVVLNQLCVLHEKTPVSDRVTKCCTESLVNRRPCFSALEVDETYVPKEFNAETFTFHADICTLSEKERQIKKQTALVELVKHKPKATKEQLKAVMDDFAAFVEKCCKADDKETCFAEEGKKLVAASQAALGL

Row | Compound | Retention Factors (logk) [1] | Retention Factors (logk) ([1]; listed as flurbiprofen) | Papp at 5 h, 0.05 mM [2] [×10⁻⁶ cm/s] | –logPe [2] | –logPe ([2]; listed as flurbiprofen) | Retention factors (k) [3] | % Bound Drug [4] | ΔE, DPV peak potential shift after interaction with HSA [4] | –logPe ([2]; listed as indomethacin) | Peak Area, t0 [5] | Peak Area, t [5] | –logPe ([2]; listed as diclofenac) | Retention factors (k) ([3]; listed as diclofenac) | –logPe ([2]; listed as ibuprofen)
1 | CC(C(=O)O)c1ccc(-c2ccccc2)c(F)c1 (stereo not shown) [Flurbiprofen, flurbiprofen] | 11.03 ± 0.02 | 11.03 | > 400 | <3.40 | ≤ 3.46 | 7.14 ± 0.02 | Electrochemically inactive | Electrochemically inactive |  |  |  |  |  | 
2 | COc1ccc2c(c1)c(CC(=O)O)c(C)n2C(=O)c1ccc(Cl)cc1 [Indomethacin, indomethacin, reference compound] |  |  | 386 | 3.41 ± 0.05 |  | 10.20 ± 0.03 |  |  | ≤ 3.46 | 241.9 ± 2.5 ×10^3 | 206.9 ± 9.0 ×10^3 |  |  | 
3 | O=C(O)Cc1ccccc1Nc1c(Cl)cccc1Cl [Diclofenac, diclofenac] |  |  | > 400 | <3.40 |  | 8.25 ± 0.00 |  |  |  | 126.2 ± 2.8 ×10^3 | 99.7 ± 5.3 ×10^3 | ≤ 3.46 | 8.25 | 
4 | CC(C)Cc1ccc(C(C)C(=O)O)cc1 (stereo not shown) [Ibuprofen, ibuprofen] |  |  | > 400 | <3.40 |  | 13.36 ± 0.00 |  |  |  |  |  |  |  | ≤ 3.46
